For one series, the system named is H1650 lung cancer cells. Briefly: Cell viability assay (MTT, IC50 determination). It is filed as cell-based. The conditions noted are these: Homo sapiens, NCI-H1650, 48 h, read-out: H1650 cell viability IC50. On the procedure: Cell viability assays were performed according to Denizot, F. and R. Lang, Journal of Immunological Methods, 1986. 89(22): p. 271-277. H1650 lung cancer cells were plated at 150,000 cells per well in a 12 well plate. Twenty-four hours after plating, cells were treated as described with increasing concentrations of drug and control. Forty-eight hours after drug treatment, cells were treated with 100 μL of 3-(4,5-Dimethylthiazol-2-yl)-2,5-diphenyltetrazolium bromide (MTT) and incubated for 2 hours at 37 C. The MTT solution was subsequently replaced with 300 μL of n-propyl alcohol and re-aliquoted to a 96 well plate. Spectrophotometric analysis of each solution was performed using a 96 well plate reader at 600 nm in triplicate.
Regarding `COC(=O)N1C[C@H](NS(=O)(=O)c2ccc(OC(F)(F)F)cc2)[C@@H](O)[C@H](N2c3ccccc3Oc3ccccc32)C1` [Example 20b, (3R,4S,5S)-methyl 4-hydroxy-3-(10H-phenoxazin-10-yl)-5-(4-(trifluoromethoxy)phenylsulfonamido)piperidine-1-carboxylate], the IC50 is 5 µM.

`CC(=O)N1C[C@H](NS(=O)(=O)c2ccc(OC(F)(F)F)cc2)[C@@H](O)[C@H](N2c3ccccc3Oc3ccccc32)C1` [Example 18b, N-((3S,4S,5R)-1-acetyl-4-hydroxy-5-(10H-phenoxazin-10-yl)piperidin-3-yl)-4-(trifluoromethoxy)benzenesulfonamide]: the IC50 was 15 µM.

Staying with this series, now noted: Homo sapiens, NCI-H1650; H1650 lung cancer cells, MTT, 48 hours after drug treatment; read-out: H1650 cell viability IC50.
As to `CC(C)(C)OC(=O)Nc1cccc(S(=O)(=O)N[C@@H]2COC[C@H](N3c4ccccc4Oc4ccccc43)[C@H]2O)c1` [Example 68, tert-butyl (3-(N-((3R,4R,5S)-4-hydroxy-5-(10H-phenoxazin-10-yl)tetrahydro-2H-pyran-3-yl)sulfamoyl)phenyl)carbamate], the IC50 stood at 5 µM.

Regarding `CC(C)(C)OC(=O)N1C[C@H](NS(=O)(=O)c2ccc(OC(F)(F)F)cc2)[C@@H](O)[C@H](n2c3ccccc3c3ccccc32)C1` [Example 52b, (3R,4S,5S)-tert-butyl 3-(9H-carbazol-9-yl)-4-hydroxy-5-(4-(trifluoromethoxy)phenylsulfonamido)piperidine-1-carboxylate], the IC50 was 5 µM.

Take `O=S(=O)(N[C@@H]1COC[C@H](N2c3ccccc3Oc3ccc(C(F)(F)F)cc32)[C@H]1O)c1ccc(OC(F)(F)F)cc1` [Example 8, N-((3R,4R,5S)-4-hydroxy-5-(2-(trifluoromethyl)-10H-phenoxazin-10-yl)tetrahydro-2H-pyran-3-yl)-4-(trifluoromethoxy)benzenesulfonamide]: the half-inhibitory concentration (IC50) came to 10 µM.

As for `O=S(=O)(N[C@@H]1COC[C@H](n2c3ccc(Cl)cc3c3cc(Cl)ccc32)[C@H]1O)c1ccc(OC(F)(F)F)cc1` [Example 5, N-((3R,4R,5S)-5-(3,6-dichloro-9H-carbazol-9-yl)-4-hydroxytetrahydro-2H-pyran-3-yl)-4-(trifluoromethoxy)benzenesulfonamide], the IC50 came to 5 µM.

As for `CC(C)(C)OC(=O)N1C[C@@H](NS(=O)(=O)c2ccc(OC(F)(F)F)cc2)[C@H](O)[C@@H](n2c3ccc(Cl)cc3c3cc(Cl)ccc32)C1` [Example 56, (3S,4R,5R)-tert-butyl 3-(3,6-dichloro-9H-carbazol-9-yl)-4-hydroxy-5-(4-(trifluoromethoxy)phenylsulfonamido)piperidine-1-carboxylate], the IC50 came out at 5 µM.

For `O=S(=O)(N[C@@H]1CNCC(N2c3ccccc3Oc3ccccc32)[C@H]1O)c1ccc(OC(F)(F)F)cc1` (mixture of isomers) [Example 17, Rac-N-((3R,4R,5S)-4-hydroxy-5-(10H-phenoxazin-10-yl)piperidin-3-yl)-4-(trifluoromethoxy)benzenesulfonamide], the IC50 worked out at 5 µM.

`O=S(=O)(N[C@@H]1COC[C@H](N2c3ccccc3Oc3cc(Cl)ccc32)[C@H]1O)c1ccc(OC(F)(F)F)cc1` [Example 13, N-((3R,4R,5S)-5-(3-chloro-10H-phenoxazin-10-yl)-4-hydroxytetrahydro-2H-pyran-3-yl)-4-(trifluoromethoxy)benzenesulfonamide]: the IC50 turned out to be 5 µM.

With `O=S(=O)(N[C@@H]1COC[C@H](N2c3ccc(Cl)cc3Oc3cc(Cl)ccc32)[C@H]1O)c1ccc(OC(F)(F)F)cc1` [Example 12, N-((3R,4R,5S)-5-(3,7-dichloro-10H-phenoxazin-10-yl)-4-hydroxytetrahydro-2H-pyran-3-yl)-4-(trifluoromethoxy)benzenesulfonamide], the IC50 worked out at 10 µM.

With `CC(C)(C)c1ccc2c(c1)c1ccccc1n2[C@H]1CNC[C@@H](NS(=O)(=O)c2ccc(OC(F)(F)F)cc2)[C@@H]1O` [Example 53a, N-((3R,4R,5S)-5-(3-(tert-butyl)-9H-carbazol-9-yl)-4-hydroxypiperidin-3-yl)-4-(trifluoromethoxy)benzenesulfonamide], the IC50 was 5 µM.

Consider `O=S(=O)(N[C@@H]1CNC[C@H](n2c3ccccc3c3ccccc32)[C@H]1O)c1ccc(OC(F)(F)F)cc1` [Example 41a, N-((3R,4R,5S)-5-(9H-carbazol-9-yl)-4-hydroxypiperidin-3-yl)-4-(trifluoromethoxy)benzenesulfonamide], for which the IC50 worked out at 10 µM.

Take `CN1C[C@H](NS(=O)(=O)c2ccc(OC(F)(F)F)cc2)[C@@H](O)[C@H](N2c3ccccc3Oc3ccccc32)C1` [Example 19b, N-((3S,4S,5R)-4-hydroxy-1-methyl-5-(10H-phenoxazin-10-yl)piperidin-3-yl)-4-(trifluoromethoxy)benzenesulfonamide]: the IC50 was determined as 15 µM.

On to `O=S(=O)(N[C@@H]1COC[C@H](N2c3ccccc3Oc3ccccc32)[C@H]1O)c1ccc(C(F)(F)F)nc1` [Example 63, N-((3R,4R,5S)-4-hydroxy-5-(10H-phenoxazin-10-yl)tetrahydro-2H-pyran-3-yl)-6-(trifluoromethyl)pyridine-3-sulfonamide], for which the IC50 was determined as 20 µM.

With `O=S(=O)(N[C@@H]1COCC(N2c3ccccc3Oc3ccccc32)[C@H]1O)c1ccc(OC(F)(F)F)cc1` (relative stereo) [Example 2, N-(4-hydroxy-5-(10H-phenoxazin-10-yl)tetrahydro-2H-pyran-3-yl)-4-(trifluoromethoxy)benzenesulfonamide], the IC50 was found to be 15 µM.

Take `O=S(=O)(N[C@@H]1COC[C@H](N2c3ccc(C(F)(F)F)cc3Oc3cc(C(F)(F)F)ccc32)[C@H]1O)c1ccc(OC(F)(F)F)cc1` [Example 14, N-((3R,4R,5S)-5-(3,7-bis(trifluoromethyl)-10H-phenoxazin-10-yl)-4-hydroxytetrahydro-2H-pyran-3-yl)-4-(trifluoromethoxy)benzenesulfonamide]: the 50% inhibitory concentration (IC50) was determined as 5 µM.

In the case of `CC(C)(C)OC(=O)N1C[C@@H](NS(=O)(=O)c2ccc(OC(F)(F)F)cc2)[C@H](O)[C@@H](N2c3ccc(C(F)(F)F)cc3Oc3cc(C(F)(F)F)ccc32)C1` [Example 57, (3S,4R,5R)-tert-butyl 3-(3,7-bis(trifluoromethyl)-10H-phenoxazin-10-yl)-4-hydroxy-5-(4-(trifluoromethoxy)phenylsulfonamido)piperidine-1-carboxylate], the IC50 is 5 µM.

For `O=S(=O)(N[C@@H]1COC[C@H](N2c3ccccc3Oc3ccccc32)[C@H]1O)c1ccccc1Cl` [Example 65, 2-chloro-N-((3R,4R,5S)-4-hydroxy-5-(10H-phenoxazin-10-yl)tetrahydro-2H-pyran-3-yl)benzenesulfonamide], the IC50 is 20 µM.

As to `CC(C)(C)OC(=O)Nc1ccc(S(=O)(=O)N[C@@H]2COC[C@H](N3c4ccccc4Oc4ccccc43)[C@H]2O)cc1` [Example 66, tert-butyl (4-(N-((3R,4R,5S)-4-hydroxy-5-(10H-phenoxazin-10-yl)tetrahydro-2H-pyran-3-yl)sulfamoyl)phenyl)carbamate], the IC50 was 5 µM.

Still in this series, the particulars now being: at 40 uM; H1650 lung cancer cells, MTT, 48 hours.
For the compound `Nc1ccc(S(=O)(=O)N[C@@H]2COC[C@H](N3c4ccccc4Oc4ccccc43)[C@H]2O)cc1` [Example 67, 4-amino-N-((3R,4R,5S)-4-hydroxy-5-(10H-phenoxazin-10-yl)tetrahydro-2H-pyran-3-yl)benzenesulfonamide], the “H1650 cell viability, % at 40 uM” value was 56% at 40 uM.

In general, IC50 refers to the point on the concentration scale where inhibition reaches its midpoint.

For the origin of these results see US10759790B2, “Heterocyclic constrained tricyclic sulfonamides as anti-cancer agents” (ICAHN SCHOOL OF MEDICINE AT MOUNT SINAI, priority 2015, dated 2020).
